In patent US20100279990A1, “ANTIPROLIFERATIVE COMPOUNDS, COMPOSITIONS AND METHODS OF USE” (RAMOT AT TEL-AVIV UNIVERSITY LTD., priority 2006, published 2010):

Legend:
[1] = tested on: human colon carcinoma cells (HT29); assay: cells
MAXF 401NL = assay: Monolayer Assay, PI: MAXF 401NL (Breast); format: cell-based, human
Excerpt: (§1) This example illustrates cell proliferation data in the form of IC50, IC70 and IC90 values obtained by exposure of human cancer cell-lines to compound (Ia). […].

GXF 251L = assay: Monolayer Assay, PI: GXF 251L (Gastric); format: cell-based, human
Excerpt: as §1

HNXF 536L = assay: Monolayer Assay, PI: HNXF 536L; format: cell-based, human
Excerpt: as §1

Jurkat Lymphoma cells = assay: Viability of Jurkat Lymphoma cells, combination with Doxorubicin; format: cell-based; conditions: Homo sapiens, read-out: inhibition of cell viability
CXF HT29 = assay: Monolayer Assay, PI: CXF HT29 (Colorectal); format: cell-based, human
Excerpt: as §1

[2] = tested on: resistant colon carcinoma LS1034 cell-line; assay: Viability of resistant colon carcinoma LS1034 cell-line (FIG. 7A); format: cell-based; conditions: LS-1034, read-out: IC50, inhibition of cell viability
Excerpt: This example illustrates cell viability data obtained by separately administering different concentrations of compound (Ia), sertraline, paroxetine, and doxorubicin to a […] resistant colon carcinoma LS1034 cell-line. The results are depicted in FIG. 7A.

PAXF PANC1 = assay: Monolayer Assay, PI: PAXF PANC1; format: cell-based, human
Excerpt: as §1

OVXF 899L = assay: Monolayer Assay, PI: OVXF 899L (Ovarian Cancer); format: cell-based, human
Excerpt: as §1

[3] = tested on: human colon carcinoma cells (HT29)
male Balb/C mice = assay: Acute toxicity in male Balb/C mice, ip; format: in vivo
Procedure: This example illustrates acute toxicity data derived from the treatment of male Balb/C mice with different concentrations of compound (Ia). The results are depicted in FIG. 11. Compound (Ia) was administered ip to groups of mice at doses of 10, 20 and 30 mg/kg. Sertraline was also administered to one group at 30 mg/kg. Each group of mice included five animals.
Body weight was determined up to 12 days after drug administration.

RXF 944L = assay: Monolayer Assay, PI: RXF 944L (Renal); format: cell-based, human
Excerpt: as §1

CNXF 498NL = assay: Monolayer Assay, PI: CNXF 498NL; format: cell-based, human
Excerpt: as §1

LXF 1121L = assay: Monolayer Assay, PI: LXF 1121L (Lung); format: cell-based, human
Excerpt: as §1

MEXF 276L = assay: Monolayer Assay, PI: MEXF 276L (Melanoma); format: cell-based, human
Excerpt: as §1

## CN[C@H]1CC[C@@H](c2ccc(Cl)c(Cl)c2)c2ccc(C#CCCCO)cc21 [compound (Ia), (1S-cis)-4-(3,4-dichlorophenyl)-7-(5-hydroxy-1-pentyn-1-yl)-1,2,3,4-tetrahydro-N-methyl-1-naphthalenamine hydroiodide]
[1]; HT-29, read-out: IC50, viability
  IC50: 12.7 µM
[1]; HT-29, read-out: cell viability
  viability at 30 µM: 30.9%
MAXF 401NL; 2.3 μg/ml
  Test/Control (%): 70%
  Test/Control activity class: − (− (T/C = 50))
MAXF 401NL; 7.5 μg/ml
  Test/Control (%): 9%
  Test/Control activity class: +++ (+++ (T/C < 10))
MAXF 401NL; 23. μg/ml
  Test/Control (%): 3%
  Test/Control activity class: +++ (+++ (T/C < 10))
MAXF 401NL; 75. μg/ml
  Test/Control (%): 3%
  Test/Control activity class: +++ (+++ (T/C < 10))
MAXF 401NL; .75 μg/ml
  Test/Control (%): 103%
  Test/Control activity class: − (− (T/C = 50))
GXF 251L; 2.3 μg/ml
  Test/Control (%): 80%
  Test/Control activity class: − (− (T/C = 50))
GXF 251L; 7.5 μg/ml
  Test/Control (%): 54%
  Test/Control activity class: − (− (T/C = 50))
GXF 251L; 23. μg/ml
  Test/Control (%): 7%
  Test/Control activity class: +++ (+++ (T/C < 10))
GXF 251L; 75. μg/ml
  Test/Control (%): 3%
  Test/Control activity class: +++ (+++ (T/C < 10))
GXF 251L; .75 μg/ml
  Test/Control (%): 90%
  Test/Control activity class: − (− (T/C = 50))
HNXF 536L; 2.3 μg/ml
  Test/Control (%): 102%
  Test/Control activity class: − (− (T/C = 50))
HNXF 536L; 7.5 μg/ml
  Test/Control (%): 97%
  Test/Control activity class: − (− (T/C = 50))
HNXF 536L; 23. μg/ml
  Test/Control (%): 4%
  Test/Control activity class: +++ (+++ (T/C < 10))
HNXF 536L; 75. μg/ml
  Test/Control (%): 3%
  Test/Control activity class: +++ (+++ (T/C < 10))
HNXF 536L; .75 μg/ml
  Test/Control (%): 112%
  Test/Control activity class: − (− (T/C = 50))
Jurkat Lymphoma cells; 5 μM alone
  cytotoxicity at 5 µM: 18%
Jurkat Lymphoma cells; 10 μM alone
  cytotoxicity at 10 µM: 59.5%
CXF HT29; 2.3 μg/ml
  Test/Control (%): 100%
  Test/Control activity class: − (− (T/C = 50))
CXF HT29; 7.5 μg/ml
  Test/Control (%): 3%
  Test/Control activity class: +++ (+++ (T/C < 10))
CXF HT29; 23. μg/ml
  Test/Control (%): 1%
  Test/Control activity class: +++ (+++ (T/C < 10))
CXF HT29; 75. μg/ml
  Test/Control (%): 1%
  Test/Control activity class: +++ (+++ (T/C < 10))
CXF HT29; .75 μg/ml
  Test/Control (%): 99%
  Test/Control activity class: − (− (T/C = 50))
[2]
  IC50: 11.3 µM
PAXF PANC1; 2.3 μg/ml
  Test/Control (%): 98%
  Test/Control activity class: − (− (T/C = 50))
PAXF PANC1; 7.5 μg/ml
  Test/Control (%): 33%
  Test/Control activity class: + (+ (30 <= T/C < 50))
PAXF PANC1; 23. μg/ml
  Test/Control (%): 3%
  Test/Control activity class: +++ (+++ (T/C < 10))
PAXF PANC1; 75. μg/ml
  Test/Control (%): 4%
  Test/Control activity class: +++ (+++ (T/C < 10))
PAXF PANC1; .75 μg/ml
  Test/Control (%): 105%
  Test/Control activity class: − (− (T/C = 50))
OVXF 899L; 2.3 μg/ml
  Test/Control (%): 94%
  Test/Control activity class: − (− (T/C = 50))
OVXF 899L; 7.5 μg/ml
  Test/Control (%): 10%
  Test/Control activity class: ++ (++ (10 <= T/C < 30))
OVXF 899L; 23. μg/ml
  Test/Control (%): 3%
  Test/Control activity class: +++ (+++ (T/C < 10))
OVXF 899L; 75. μg/ml
  Test/Control (%): 4%
  Test/Control activity class: +++ (+++ (T/C < 10))
OVXF 899L; .75 μg/ml
  Test/Control (%): 100%
  Test/Control activity class: − (− (T/C = 50))
[3]; 10-30 μM, FIG. 2A
  potency compared with paroxetine: higher potency than paroxetine
[3]; equimolar doses, FIG. 2B
  potency compared with paroxetine and fluoxetine: significantly more potent than paroxetine and fluoxetine
Male Balb/C mice; ip 10, 20 and 30 mg/kg, observed 4 h and after 24 h
  behavioral changes: none of the animals showed any observed change in behavior
Male Balb/C mice; ip 10, 20 and 30 mg/kg, over 12 days
  changes in food intake or body weight: none of the animals exhibited changes in food intake or body weight
Male Balb/C mice; ip, up to 30 mg/kg
  tolerability of acute ip administration: well tolerated
RXF 944L; 2.3 μg/ml
  Test/Control (%): 103%
  Test/Control activity class: − (− (T/C = 50))
RXF 944L; 7.5 μg/ml
  Test/Control (%): 9%
  Test/Control activity class: +++ (+++ (T/C < 10))
RXF 944L; 23. μg/ml
  Test/Control (%): 3%
  Test/Control activity class: +++ (+++ (T/C < 10))
RXF 944L; 75. μg/ml
  Test/Control (%): 3%
  Test/Control activity class: +++ (+++ (T/C < 10))
RXF 944L; .75 μg/ml
  Test/Control (%): 94%
  Test/Control activity class: − (− (T/C = 50))
CNXF 498NL; 2.3 μg/ml
  Test/Control (%): 101%
  Test/Control activity class: − (− (T/C = 50))
CNXF 498NL; 7.5 μg/ml
  Test/Control (%): 5%
  Test/Control activity class: +++ (+++ (T/C < 10))
CNXF 498NL; 23. μg/ml
  Test/Control (%): 3%
  Test/Control activity class: +++ (+++ (T/C < 10))
CNXF 498NL; 75. μg/ml
  Test/Control (%): 1%
  Test/Control activity class: +++ (+++ (T/C < 10))
CNXF 498NL; .75 μg/ml
  Test/Control (%): 97%
  Test/Control activity class: − (− (T/C = 50))
LXF 1121L; 2.3 μg/ml
  Test/Control (%): 104%
  Test/Control activity class: − (− (T/C = 50))
LXF 1121L; 7.5 μg/ml
  Test/Control (%): 72%
  Test/Control activity class: − (− (T/C = 50))
LXF 1121L; 23. μg/ml
  Test/Control (%): 2%
  Test/Control activity class: +++ (+++ (T/C < 10))
LXF 1121L; 75. μg/ml
  Test/Control (%): 1%
  Test/Control activity class: +++ (+++ (T/C < 10))
LXF 1121L; .75 μg/ml
  Test/Control (%): 103%
  Test/Control activity class: − (− (T/C = 50))
MEXF 276L; 2.3 μg/ml
  Test/Control (%): 88%
  Test/Control activity class: − (− (T/C = 50))
MEXF 276L; 7.5 μg/ml
  Test/Control (%): 30%
  Test/Control activity class: + (+ (30 <= T/C < 50))
MEXF 276L; 23. μg/ml
  Test/Control (%): 4%
  Test/Control activity class: +++ (+++ (T/C < 10))
MEXF 276L; 75. μg/ml
  Test/Control (%): 5%
  Test/Control activity class: +++ (+++ (T/C < 10))
MEXF 276L; .75 μg/ml
  Test/Control (%): 95%
  Test/Control activity class: − (− (T/C = 50))
